# From US20140105996A1, “Avian-Based Treatment” (Cocky Smart Pty Ltd, priority 2011, published 2014)
# Test system: A2058 melanoma cells
# Test: Growth of A2058 melanoma cells with EP-2 or TPP (Examples 1-3)
# Type: cell-based
# Method: Saturated solutions of bird extract EP-2, 10 ng/mL triphenyl phosphate (TPP) or control media were used to saturate growth medium containing melanoma cells (A2058 Melanoma cells) at a concentration of approximately 1.2×10^4 cells/well or 1.0×10^4 cells/well. All results are average cell counts for experiments performed in triplicate (see FIG. 1). TPP was investigated on the basis of the findings in Zurhaar WO2008/019452 “Insect Repellent” that the insect repellent factor in an avian extract was TPP.
# Pooled solvent vehicle (ethanol, methanol and pentane—used for EP-2 extraction), avian extract EP-2 and TPP were applied to 4×10^4 A2058 cells in 12 well plates.
# To further investigate the effect of EP-2 on cells in general, a ⅕ dilution of avian extract EP-2 was placed on 1×10^4 A2058 melanoma cells and HEK293 non-cancerous human embryonic kidney cells.
compound,measurement,setting,value
"O=P(Oc1ccccc1)(Oc1ccccc1)Oc1ccccc1 [TPP, Triphenyl phosphate]",lower growth rate than cells containing control medium,"Example 1, by day 9, 10 ng/mL TPP",25%
same,effect on cell growth,Example 2,moderate effect
